Assay results taken from patent US12558428B2, “Heterobifunctional compounds and their use in treating disease” (Halda Therapeutics OpCo, Inc., priority 2024, dated 2026).
Like-named read-outs stand apart in the source and are kept apart here.

Assays:
Type in all cases: cell-based
[1] = test system: MCF7 cells (ECACC #86012803); experiment: Cellular growth inhibition assay, MCF7 cells purchased from ECACC; settings: Homo sapiens, 144 h; MCF7 cells purchased from ECACC (#86012803); six days treatment; CellTiter-Glo 2.0 viability
Procedure: Exemplary compounds were tested for the ability to inhibit the proliferation of MCF7 cells.
MCF7 cells (ATCC #HTB-22 or ECACC #86012803) were cultured in RPMI 1640 medium supplemented with 10% heat-inactivated fetal bovine serum, 1% pen-strep, and 0.2 U/ml insulin. Cells were seeded in 25 μL of RPMI 1640 medium supplemented with 10% heat-inactivated fetal bovine serum, 1% pen-strep, 0.2 U/ml insulin in poly-D-lysine treated, black clear-bottom 384-well plates at 225 cells/well for MCF7 cells purchased from ECACC or 1,500 cells/well for MCF7 cells purchased from ATCC. Following seeding, plates were spun at 300×g for 30 seconds and cultured at 37° C. with 5% CO2 in a humidified tissue culture incubator.
At 24 hours after seeding, compounds were titrated in 100% DMSO and diluted in RPMI 1640 medium supplemented with 10% heat-inactivate fetal bovine serum, 1% pen-strep, and 0.2 U/ml insulin. A 25 μL aliquot of the compound/media mixture was added to cells, bringing the total volume in each well to 50 μL. An equal volume of DMSO without compound was used as a negative control. After treatment, plates were spun at 300×g for 30 seconds, then cultured at 37° C. with 5% CO2 for six days in a humidified tissue culture incubator.
On Day 6 of treatment, cell viability was quantified with CellTiter-Glo 2.0 reagent (Promega). Plates were equilibrated to room temperature for 30 minutes, then 25 μL of CellTiter-Glo 2.0 reagent was added to cells, bringing the total volume in each well to 75 μL. After reagent was added, plates were mixed on a shaker for two minutes at 500 rpm and then incubated at room temperature for 10 minutes. Following incubation, plates were spun at 3,000×g for 30 seconds, sealed with an optical adhesive cover, and luminescence readings were measured with an EnVision Plate Reader.
Data was normalized to 0 luminescence for baseline. A four-parameter, non-linear regression curve fit was applied to dose-response data in GraphPad Prism data analysis software to determine the half maximal growth inhibitory concentration (GI50) for each compound.

[2] = test system: T-Rex 293 cells having increased expression of estrogen receptor alpha protein; experiment: Cellular growth inhibition assay, T-Rex 293 cells, (+) doxycycline; settings: T-REx-293, 72 h, T-Rex 293 cells with doxycycline (increased ERα expression), 72 hours, CellTiter-Glo, read-out: (+) Dox GI50
Outline: (§1)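 Viability read-out was CellTiter-Glo 2.0 luminescence after 72 h compound exposure, normalized to zero luminescence and fitted by four-parameter regression to give GI50. Cells were an ERα-inducible T-Rex 293 clone cultured with or without 3 ng/mL doxycycline in charcoal-stripped, phenol red-free medium.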

[3] = test system: T-Rex 293 cells lacking increased expression of estrogen receptor alpha protein; experiment: Cellular growth inhibition assay, T-Rex 293 cells, (−) doxycycline; settings: T-REx-293, 72 h, T-Rex 293 cells without doxycycline (lacking increased ERα expression), 72 hours, CellTiter-Glo, read-out: (−) Dox GI50
Outline: as §1

[4] = test system: MCF7 cells (ATCC #HTB-22); experiment: Cellular growth inhibition assay, MCF7 cells purchased from ATCC; settings: Homo sapiens, MCF7, 144 h, Table 8-A; MCF7 cells purchased from ATCC; six days; CellTiter-Glo; read-out: GI50
Outline: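 MCF7 cells in RPMI 1640 with 10% FBS and 0.2 U/ml insulin, seeded at 1,500 cells/well (ATCC) or 225 cells/well (ECACC). Compounds added 24 h later, then 6 days at 37° C. Viability by CellTiter-Glo 2.0 luminescence. GI50 from four-parameter fit.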

SMILES | GI50 [1] | GI50 ([2]; Table 7-B) | GI50 ([3]; Table 7-B) | GI50 ([2]; Table 7-A) | GI50 [4] | GI50 ([3]; Table 7-A)
Cc1sc2c(c1C)C(c1ccc(N3CCC(O)(CN4CCN(c5cc(F)c(C6=C(c7ccccc7)CCCc7cc(C(=O)O)ccc76)c(F)c5)CC4)CC3)cc1)=N[C@@H](C)c1nnc(C)n1-2 [IV-69] | < 50 nM | < 50 nM | 500 to 2500 nM |  |  | 
COc1cc(N2CCC(O)(CN3CCN(c4cc(F)c([C@@H]5c6ccc(O)cc6CC[C@@H]5c5ccccc5)cc4F)CC3)CC2)ccc1C1=N[C@@H](C)c2nnc(C)n2-c2sc(C)c(C)c21 [III-356] | 50 to 500 nM | < 50 nM | 500 to 2500 nM |  |  | 
COc1cc(N2CCC(O)(CN3CCN(c4ccc([C@H]5c6ccc(O)cc6CC[C@@H]5c5ccc(F)cc5)cc4F)CC3)CC2)ccc1C1=N[C@@H](C)c2nnc(C)n2-c2sc(C)c(C)c21 [III-352] | < 50 nM | < 50 nM | 500 to 2500 nM |  |  | 
COc1cc(N2CCN(CC3(O)CCN(c4ccc(C5=N[C@@H](C)c6nnc(C)n6-c6sc(C)c(C)c65)c(F)c4)CC3)CC2)ccc1[C@H]1c2ccc(O)cc2CC[C@H]1c1ccc(C(F)(F)F)cc1 [III-354] | 50 to 500 nM | 50 to 500 nM | 500 to 2500 nM |  |  | 
COc1cc(N2CCC(O)(CN3CCN(c4cc(F)c([C@@H]5c6ccc(O)cc6CC[C@@H]5c5ccc(F)cc5)c(F)c4)CC3)CC2)ccc1C1=N[C@@H](C)c2nnc(C)n2-c2sc(C)c(C)c21 [III-358] | < 50 nM | < 50 nM | 500 to 2500 nM |  |  | 
COc1cc(N2CCN(CC3CCN(c4ccc(C5=N[C@@H](C)c6nnc(C)n6-c6sc(C)c(C)c65)c(F)c4)CC3)CC2)ccc1[C@H]1c2ccc(O)cc2CC[C@H]1c1ccc(C(F)(F)F)cc1 [III-350] | 50 to 500 nM | > 2500 nM | > 2500 nM |  |  | 
Cc1sc2c(c1C)C(c1ccc(N3CC4(CC(CN5CCN(c6cc(F)c(C7=C(c8ccccc8F)CCCc8cc(C(=O)O)ccc87)cc6F)CC5)C4)C3)cc1)=N[C@@H](C)c1nnc(C)n1-2 [IV-72] | < 50 nM | < 50 nM | 500 to 2500 nM |  |  | 
Cc1sc2c(c1C)C(c1ccc(N3CC(CN4CCN(CC5CN(c6cc(F)c(C7=C(c8ccccc8)CCCc8cc(C(=O)O)ccc87)cc6F)C5)CC4)C3)cc1)=N[C@@H](C)c1nnc(C)n1-2 [IV-70] | < 50 nM | < 50 nM | 500 to 2500 nM |  |  | 
COc1cc(N2CCN(CC3(O)CCN(c4ccc(C5=N[C@@H](C)c6nnc(C)n6-c6sc(C)c(C)c65)cc4)CC3)CC2)ccc1[C@@H]1c2ccc(O)cc2CC[C@@H]1c1ccc(C(F)(F)F)cc1 [III-349] | < 50 nM | < 50 nM | 500 to 2500 nM |  |  | 
COc1cc(N2CCC(O)(CN3CCN(c4cc(F)c([C@H]5c6ccc(O)cc6CC[C@H]5c5ccccc5)cc4F)CC3)CC2)ccc1C1=N[C@@H](C)c2nnc(C)n2-c2sc(C)c(C)c21 [III-357] | 50 to 500 nM | 50 to 500 nM | 500 to 2500 nM |  |  | 
COc1cc(C2CCN(CC3CCC4(CC3)CN(c3ccc(C5=N[C@@H](C)c6nnc(C)n6-c6sc(C)c(C)c65)cc3)C4)CC2)ccc1C1=C(c2ccccc2Cl)CCCc2cc(C(=O)O)ccc21 [IV-71] | < 50 nM | < 50 nM | 500 to 2500 nM |  |  | 
COc1cc(N2CCN(CC3CCN(c4ccc(C5=N[C@@H](C)c6nnc(C)n6-c6sc(C)c(C)c65)c(F)c4)CC3)CC2)ccc1[C@@H]1c2ccc(O)cc2CC[C@@H]1c1ccc(C(F)(F)F)cc1 [III-351] | < 50 nM | < 50 nM | > 2500 nM |  |  | 
COc1cc(N2CCC(O)(CN3CCC(c4cc(F)c([C@H]5c6ccc(O)cc6CC[C@H]5c5ccc(F)cc5)c(F)c4)CC3)CC2)ccc1C1=N[C@@H](C)c2nnc(C)n2-c2sc(C)c(C)c21 [III-359] | 50 to 500 nM | 50 to 500 nM | 500 to 2500 nM |  |  | 
COc1cc(N2CCN(CC3(O)CCN(c4ccc(C5=N[C@@H](C)c6nnc(C)n6-c6sc(C)c(C)c65)c(F)c4)CC3)CC2)ccc1[C@@H]1c2ccc(O)cc2CC[C@@H]1c1ccc(C(F)(F)F)cc1 [III-355] | < 50 nM | < 50 nM | 500 to 2500 nM |  |  | 
COc1cc(N2CCN(CC3(O)CCN(c4ccc(C5=N[C@@H](C)c6nnc(C)n6-c6sc(C)c(C)c65)cc4)CC3)CC2)ccc1C1=C(c2ccccc2)CCCc2cc(C(=O)O)ccc21 [IV-66] | < 50 nM | < 50 nM | 500 to 2500 nM |  |  | 
Cc1sc2c(c1C)C(c1ccc(N3CCC(O)(CN4CCN(c5cc(F)c(C6=C(c7ccccc7)CCCc7cc(C(=O)O)ccc76)cc5F)CC4)CC3)cc1)=N[C@@H](C)c1nnc(C)n1-2 [IV-67] | < 50 nM | < 50 nM | 500 to 2500 nM |  |  | 
COc1cc(N2CCC(O)(CN3CCN(c4ccc([C@H]5c6ccc(O)cc6CC[C@H]5c5ccc(F)cc5)cc4F)CC3)CC2)ccc1C1=N[C@@H](C)c2nnc(C)n2-c2sc(C)c(C)c21 [III-353] | 50 to 500 nM | 50 to 500 nM | 500 to 2500 nM |  |  | 
COc1cc(N2CCN(CC3(O)CCN(c4ccc(C5=N[C@@H](C)c6nnc(C)n6-c6sc(C)c(C)c65)cc4)CC3)CC2)c(F)cc1C1=C(c2ccccc2F)CCCc2cc(C(=O)O)ccc21 [IV-68] | < 50 nM | < 50 nM | 500 to 2500 nM |  |  | 
CC1=C(c2c(F)cc(F)cc2F)[C@H](c2ccc(N3CCN(CC4CCN(c5ccc(C6=N[C@@H](C)c7nnc(C)n7-c7sc(C)c(C)c76)cc5)CC4)CC3)cc2)Oc2ccc(O)cc21 [V-23] |  |  |  | < 50 nM | 50 to 500 nM | 500 to 2500 nM
Cc1sc2c(c1C)C(c1ccc(N3CCC(O)(CN4CCN(c5cc(F)c([C@H]6c7ccc(O)cc7CC[C@H]6c6ccccc6)c(F)c5)CC4)CC3)cc1)=N[C@@H](C)c1nnc(C)n1-2 [III-187] |  |  |  | < 50 nM | 50 to 500 nM | 50 to 500 nM
Cc1sc2c(c1C)C(c1ccc(N3CCN(CC4CCN(c5ccc(C6=C(c7ccc(Cl)cc7Cl)CCCc7cc(C(=O)O)ccc76)cc5)CC4)CC3)cc1)=N[C@@H](C)c1nnc(C)n1-2 [IV-1] |  |  |  | < 50 nM | 50 to 500 nM | > 2500 nM
Cc1sc2c(c1C)C(c1ccc(CC3CC4(CCCN(c5ccc([C@@H]6c7ccc(O)cc7CC[C@@H]6c6ccccc6)cc5)C4)C3)cc1)=N[C@@H](C)c1nnc(C)n1-2 (stereo partly drawn) [I-44] |  |  |  | 50 to 500 nM | 500 to 2500 nM | 500 to 2500 nM
Cc1sc2c(c1C)C(c1ccc(N3CC4(CC(CN5CCN(c6ccc(C7=C(c8ccccc8)CCCc8cc(O)ccc87)cc6)CC5)C4)C3)cc1)=N[C@@H](C)c1nnc(C)n1-2 [IV-50] |  |  |  | < 50 nM | < 50 nM | 500 to 2500 nM
Cc1sc2c(c1C)C(c1ccc(N3CCN(C4CCN(CCOc5ccc([C@@H]6c7ccc(O)cc7CC[C@@H]6c6ccccc6)cc5)CC4)CC3)cc1)=NC(Cc1ncco1)c1nnc(C)n1-2 (stereo partly drawn) [III-63] |  |  |  | < 50 nM | 50 to 500 nM | 50 to 500 nM
